Reference: patent publication US4389412A, “Substituted cyclopropanecarboxylic acid esters and pesticidal compositions containing the same as active ingredient” (priority 1979, dated 1983)
Read-outs that look alike come from different tables or passages of the source.

How the values were obtained:
[1] = test system: houseflies (Musca domestica); assay: Mortality test with houseflies by topical application method; details: 24 h
Procedure: Mortality test with houseflies (Musca domestica) by topical application method
Each of the compounds according to this invention and the control compounds (Table 2) was accurately weighted and a 0.1% solution of each sample in acetone was prepared. Female adult houseflies (Musca domestica) resistant to organophosphorus pesticides, were anesthetized with ether and 0.5 μl or 1.0 μl of the above solution was micropipetted onto the prothoracic dorsal region of each insect. The insects were then put in a high-walled dish together with feed and the dish was covered with a wire-mesh cover and kept at a temperature of 25° C. The test insects were used in groups of 30 individuals each. After 24 hours the insects were examined for deaths and the percent mortality was calculated.

[2] = test system: green rice leafhoppers (Nephotettix cincticeps Uhler); assay: Mortality test with green rice leafhoppers by topical application method; details: for LD50: read-out: LD50 (median lethal dose), topical, green rice leafhoppers
Procedure: Mortality test with green rice leafhoppers (Nephotettix cincticeps Uhler) by topical application method
Then, the insects were kept at 25° C. with access to rice plant seedlings. The insects were used in groups of 15 individuals each.

[3] = test system: tobacco cutworms (Prodenia litura Fabricius); assay: Mortality test with tobacco cutworms by topical application method; format: in vivo
Procedure: Mortality test with tobacco cutworms (Prodenia litura Fabricius) by topical application method
Using a microsyringe, 0.5 μl of the above solution was dripped onto the thoracic adbominal region of each of 3-instar tobacco cutworm (Prodenia litura Fabricius) larvae. […] The test larvae were used in groups of 20 individuals each.

[4] = test system: rice stem borers (Chilo suppressalis Walker); assay: Mortality test with rice stem borers by topical application method; format: in vivo
Procedure: Mortality test with rice stem borers (Chilo suppressalis Walker) by topical application method
Using a microsyringe, 0.5 μl of the above solution was applied to the thoracic abdominal region of each final-instar larva of rice stem borer (Chilo suppressalis Walker). […] The test larvae were used in groups of 20 individuals each.

[5] = Nephotettix cincticeps, in Oryza sativa, 24 h
[6] = 0.1 μg/Larva, 3-instar larvae, 24 hours, read-out: % Mortality

CC1(C)C(C=C(Cl)Cl)C1C(=O)OCc1cccc(Oc2cccc(Cl)c2)c1 (stereo not drawn)
mortality at 0.5 µg/female [1]: 60% | mortality at 1 µg/female [1]: 93%

CC1(C)C(C=C(Cl)Cl)C1C(=O)OCc1cccc(Oc2ccccc2Cl)c1 (stereo not drawn)
mortality at 0.5 µg/female [1]: 30% | mortality at 1 µg/female [1]: 60%

Cc1ccc(Oc2cccc(COC(=O)C3C(C=C(Cl)Cl)C3(C)C)c2)cc1 (stereo not drawn)
mortality at 0.5 µg/female [1]: 80% | mortality at 1 µg/female [1]: 100%

Cc1cccc(Oc2cccc(COC(=O)C3C(C=C(Cl)Cl)C3(C)C)c2)c1 (stereo not drawn)
mortality at 0.5 µg/female [1]: 50% | mortality at 1 µg/female [1]: 80%

Cc1ccc(Oc2cccc(C(C#N)OC(=O)C3C(C=C(Cl)Cl)C3(C)C)c2)cc1C (stereo not drawn)
mortality at 0.5 µg/female [1]: 40% | mortality at 1 µg/female [1]: 80%

CC1(C)C(C=C(Cl)Cl)C1C(=O)OCc1cccc(Oc2ccc(Cl)c(Cl)c2)c1 (stereo not drawn)
mortality at 0.5 µg/female [1]: 0% | mortality at 1 µg/female [1]: 20%

CC1(C)C(C=C(Cl)Cl)C1C(=O)OC(C#N)c1cccc(Oc2cc(Cl)cc(Cl)c2)c1 (stereo not drawn)
mortality at 0.5 µg/female [1]: 0% | mortality at 1 µg/female [1]: 27%

CCC(C)c1ccccc1OC(=O)NC (stereo not drawn) [Bassa, o-sec-butylphenyl methylcarbamate]
LD50 [2, 5]: 93.8 mg/kg

CC1(C)C(C=C(Cl)Cl)C1C(=O)OCc1cccc(Oc2ccc(Cl)cc2)c1 (stereo not drawn) [Compound (1) cis-/trans- = 30:70]
LD50 (median lethal dose) ([2]; green rice leafhoppers, 1440 min): 0.85 µg/g

CC(C)=CC1C(C(=O)OCc2cccc(Oc3ccccc3)c2)C1(C)C (stereo not drawn) [Compound (A), Phenothrin]
mortality at 0.0001 mg ([3]; 24 h): 35% | mortality at 0.0001 mg ([3]; 24 h, read-out: Pesticidal effect, tobacco cutworm): 35% | mortality at 0.01 µg/female [2, 5]: 80% | mortality at 0.1 µg/female [2, 5]: 100% | mortality at 1 µg/female [2, 5]: 100% | LD50 [2, 5]: 1.22 mg/kg | mortality at 10 ng ([2]; Nephotettix cincticeps, in Oryza sativa, 24 h, read-out: Pesticidal effect, green rice leafhopper): 80% | mortality at 0.5 µg/female [1]: 97% | mortality at 1 µg/female [1]: 100% | mortality at 0.001 mg ([1]; read-out: Pesticidal effect, housefly): 100% | mortality at 1 µg/larva ([4]; 24 h): 45% | mortality at 10 µg/larva ([4]; 24 h): 100% | mortality at 0.001 mg ([4]; 24 h, read-out: Pesticidal effect, rice stem borer): 45%

CC(C)C(C(=O)OCc1cccc(Oc2ccc(Cl)cc2)c1)c1ccc(Cl)cc1 (stereo not drawn) [Compound (J)]
mortality at 0.0001 mg [3, 6]: 0% | mortality at 1 µg/larva ([4]; 1.0 μg/Larva, final-instar larva, 24 hours, read-out: % Mortality): 15% | mortality at 10 µg/larva ([4]; 10 μg/Larva, final-instar larva, 24 hours, read-out: % Mortality): 90%

C#CC(OC(=O)C(c1ccc(Cl)cc1)C(C)C)c1cccc(Oc2ccc(Cl)cc2)c1 (stereo not drawn) [Compound (K)]
mortality at 0.0001 mg [3, 6]: 0% | mortality at 0.01 µg/female [2, 5]: 33% | mortality at 0.1 µg/female [2, 5]: 100% | mortality at 1 µg/female [2, 5]: 100%

CCOP(=S)(OCC)Oc1cc(C)nc(C(C)C)n1 [Diazinon, diazinon]
LD50 [2, 5]: 72.2 mg/kg

COP(=S)(OC)Oc1ccc([N+](=O)[O-])c(C)c1 [Fenitrothion, fenitrothion]
LD50 [2, 5]: 4050 mg/kg

CCOC(=O)CC(SP(=S)(OC)OC)C(=O)OCC (stereo not drawn) [Malathion, malathion]
LD50 [2, 5]: 565 mg/kg
